Assay results taken from patent publication US10433545B2, “Non-streaking durable composition for cleaning and disinfecting hard surfaces” (Ecolab USA Inc., priority 2016, dated 2019).

Columns and labels:
[1] = test system: feline calicivirus; assay: FCV (feline calicivirus, norovirus surrogate) log reduction; assay type: cell-based; settings: surfactant combined with Bardac 2050 quat
Protocol: Variations of this formula were then tested against feline calicivirus, which is norovirus surrogate. Bardac 2050 by itself was the control.
Quat was tested with each surfactant alone to determine which surfactant was interfering. Also, Lonzabac 12 was added to one formula. Streak testing was performed on each formula. FCV (feline calicivirus) testing was done in 400 ppm hard water with a 10 minute contact time and soil.

[2] = list of typical surfactants; CMC measured in water at 20 to 25 degrees C; cited from earlier work
[3] = test system: S. aureus; assay: OECD method log reduction, S. aureus; assay type: cell-based, Staphylococcus aureus; settings: 400 ppm water; 750 ppm quat
Protocol: The germicidal test methods referred to are those approved by the EPA for germicide registration in force at the time of the patent application. Staphylococcus aureus is the ATCC 6538 strain.
Formulas with passable or ok glass performance and formulas of interest were then tested for antimicrobial efficacy.
Four log reduction is considered passing for this method.

SMILES	FCV kill, result in words [1]	CMC (ppm) [2]	OECD log reduction Staph [3]
CCCCC(CC)CO[C@H]1O[C@H](CO)[C@@H](O)[C@H](O)[C@H]1O (stereo partly drawn) [AG 6202, a-D-Glucopyranoside, 2-ethylhexyl]	does not	14000 ppm	
CCCCCCCCCC[N+](C)(C)CCCCCCCCCC.[Cl-] [Bardac 2250, Didecyldimethylammoniumchloride]			1.6 log
CCCCCCCCCCCC[N+](C)(C)[O-] [Barlox 12, Lauryldimethyl amine oxide]	interferes with FCV kill		
